Source: the CombiSolv-Exp solvation set (Vermeire and Green 2021)

Test: solvent given as SMILES

c1ccccc1
Conditions	solvation free energy, 298 K [kcal/mol]
in BrC(Br)C(Br)Br	-4.27
in Brc1cccc2ccccc12	-4.1
in C1=CCCCC1	-4.37
in C1=Cc2ccccc2C1	-4.39
in C1CCC(C2CCCCC2)CC1	-3.96
in C1CCCCC1	-4.21
in C1CCOC1	-4.75
in C1COCCO1	-4.53
in C=CCCCCCCCCCCCCCC	-3.83
in CC1CCCC1	-4.19
in CC1CCS(=O)(=O)C1	-4.11
in CC1COC(=O)O1	-3.88
in CC#N	-4.25
in CC(=O)CC(C)C	-4.44
in CC(=O)N(C)C	-4.29
in CC(=O)O	-3.94
in CC(=O)OCc1ccccc1	-4.26
in CC(=O)c1ccccc1	-4.28
in CC(C)(C)O	-3.71
in CC(C)=O	-4.42
in CC(C)CC(C)(C)C	-3.95
in CC(C)CCCC(C)CCCC(C)CCCCC(C)CCCC(C)CCCC(C)C	-3.69
in CC(C)CO	-3.71
in CC(C)O	-3.71
in CC(O)CO	-3.21
in CCC#N	-4.47
in CCC(C)=O	-4.49
in CCC(C)O	-3.78
in CCCC#N	-4.29
in CCCCC#N	-4.42
in CCCCC(CC)COC(=O)CCCCC(=O)OCC(CC)CCCC	-4.09
in CCCCC(CC)COC(=O)c1ccccc1C(=O)OCC(CC)CCCC	-3.9
in CCCCCC	-4.03
in CCCCCC#N	-4.36
in CCCCCCC	-4
in CCCCCCCC	-3.96
in CCCCCCCCCC	-3.98
in CCCCCCCCCCCC	-3.85
in CCCCCCCCCCCCCCCC	-3.82
in CCCCCCCCCCCCO	-3.74
in CCCCCCCCCCO	-3.59
in CCCCCCCCCOC(=O)c1ccccc1C(=O)OCCCCCCCCC	-3.98
in CCCCCCCCO	-3.81
in CCCCCCCO	-3.83
in CCCCCO	-3.86
in CCCCCl	-4.46
in CCCCN(C=O)CCCC	-4.26
in CCCCOC(=O)c1ccccc1C(=O)OCCCC	-4.23
in CCCCOC(C)=O	-3.87
in CCCCOCCCC	-4.11
in CCCO	-3.84
in CCN1CCCC1=O	-4.5
in CCN(CC)C(C)=O	-4.39
in CCNC(C)=O	-4
in CCNC=O	-3.94
in CCO	-3.88
in CCOC(=O)c1ccccc1C(=O)OCC	-4.06
in CCOC(C)=O	-4.42
in CN1CCCC1=O	-4.43
in CN1CCCCC1=O	-4.47
in CN(C)P(=O)(N(C)C)N(C)C	-4.31
in CNC(C)=O	-3.87
in CNC=O	-3.83
in CO	-3.85
in COC(=O)OC	-4.41
in COC(C)(C)C	-4.31
in COC(C)=O	-4.38
in COCCO	-4.02
in CS(C)=O	-3.96
in Cc1ccc(C)cc1	-4.37
in Cc1cccc2ccccc12	-4.17
in Cc1cccc(C)c1	-4.36
in Cc1cccc(O)c1	-4
in Cc1ccccc1	-4.47
in ClC(Cl)(Cl)Cl	-4.42
in ClC(Cl)C(Cl)Cl	-4.59
in ClC(Cl)Cl	-4.79
in ClCBr	-4.74
in ClCCCl	-4.59
in ClCCl	-4.8
in Clc1cccc2ccccc12	-4.07
in Clc1ccccc1	-4.44
in N#CCCCC#N	-3.59
in N#CCCCCC#N	-3.92
in N#CCCO	-3.5
in N#CCc1ccccc1	-4.13
in N#Cc1ccccc1	-4.35
in NC=O	-2.69
in NCCN	-3.63
in NCCO	-3.09
in NCc1ccccc1	-4.23
in Nc1ccccc1	-4.07
in O	-0.87
in O=C1CCCCC1	-4.55
in O=C1CCCO1	-4.16
in O=C(O)C(Cl)Cl	-4.09
in O=CN1CCOCC1	-4.02
in O=Cc1ccco1	-4.04
in OC1CCCCC1	-3.85
in OCC1CCCO1	-4.04
in OCCCCCO	-3.33
in OCCCCO	-3.36
in OCCCO	-3.12
in OCCCl	-3.65
in OCCO	-2.76
in OCCOCCO	-3.38
in OCCOCCOCCO	-3.43
in OCCOCCOCCOCCO	-3.56
in OCCS	-3.62
in OCCc1ccccc1	-3.96
in OCc1ccccc1	-3.94
in OCc1ccco1	-3.89
in S=C=S	-4.51
in [2H]O[2H]	-1.01
in c1ccc2c(c1)CCCC2	-4.33
in c1ccc2ncccc2c1	-4.31
in c1ccc(C2CCCCC2)cc1	-4.19
in c1ccncc1	-4.51
in c1ccsc1	-4.61

COc1ccc2c(c1)c(CC(=O)O)c(C)n2C(=O)c1ccc(Cl)cc1
Conditions	solvation free energy, 298 K [kcal/mol]
in O	-15.1

CN(C)C(=O)Nc1ccc(Cl)cc1
Conditions	solvation free energy, 298 K [kcal/mol]
in C1CCOC1	-13.7
in CC(C)CC(C)(C)C	-9.58
in CC(C)CCO	-13.1
in CC(C)CO	-13.1
in CC(C)O	-13.1
in CCC(C)O	-13.1
in CCCC(C)O	-13
in CCCCC(CC)CO	-12.8
in CCCCCC	-9.81
in CCCCCCC	-9.75
in CCCCCCCC	-9.79
in CCCCCCCCCC	-9.8
in CCCCCCCCCCO	-12.8
in CCCCCCCO	-13
in CCCCCCO	-13.2
in CCCCCO	-13.2
in CCCCO	-13.3
in CCCCOC(C)=O	-12.8
in CCCCOCCCC	-11.6
in CCCO	-13.3
in CCO	-13.4
in CCOC(C)=O	-13.1
in CO	-13.7
in COC(C)=O	-13.1
in ClC(Cl)(Cl)Cl	-11.1
in ClC(Cl)Cl	-13.3
in ClCCCl	-13
in ClCCl	-13.3
in O	-10.4

c1ccc2c(c1)Oc1ccccc1O2
Conditions	solvation free energy, 298 K [kcal/mol]
in O	-3.15

CC(C)COC(=O)C(C)C
Conditions	solvation free energy, 298 K [kcal/mol]
in O	-1.69

C=CC=O
Conditions	solvation free energy, 298 K [kcal/mol]
in CCCCCO	-3.22
in CCCCO	-3.21
in O	-3.16

CC(C)CCCCCCCOC(=O)c1ccccc1C(=O)OCCCCCCCC(C)C
Conditions	solvation free energy, 298 K [kcal/mol]
in O	-5.93

Cc1cc(C)c2ccccc2c1
Conditions	solvation free energy, 298 K [kcal/mol]
in O	-2.47

Clc1ccc(Br)cc1
Conditions	solvation free energy, 298 K [kcal/mol]
in CC(C)CO	-6.51
in CCCCOCCCC	-7.08
in COC(C)(C)C	-7.27
in O	-1.61

CCCBr
Conditions	solvation free energy, 298 K [kcal/mol]
in C=CCCCCCCCCCCCCCC	-3.56
in ClC(Cl)(Cl)Cl	-4.17
in O	-0.56

ClCCl
Conditions	solvation free energy, 298 K [kcal/mol]
in C1CCOC1	-4.27
in C1COCCO1	-4.09
in C=CCCCCCCCCCCCCCC	-2.77
in CC#N	-3.99
in CC(=O)N(C)C	-4.34
in CC(C)=O	-4.13
in CC(C)CC(C)(C)C	-2.84
in CC(C)O	-3.26
in CCC(C)=O	-4.05
in CCCCC	-3.09
in CCCCCCC	-2.91
in CCCCCCCC	-2.86
in CCCCCCCCC=CCCCCCCCC(=O)OCC(COC(=O)CCCCCCCC=CCCCCCCCC)OC(=O)CCCCCCCC=CCCCCCCCC	-3.37
in CCCCCCCCCCCCCC	-2.67
in CCCCCCCCCCCCCCCC	-2.72
in CCCCCCCCCCCCO	-2.91
in CCCCCCCCN(CCCCCCCC)CCCCCCCC	-2.82
in CCCCCCCCO	-3.08
in CCCCCN(CCCCC)CCCCC	-2.99
in CCCCCO	-3.19
in CCCCCl	-3.55
in CCCCN(C=O)CCCC	-3.92
in CCCCN(CCCC)CCCC	-2.87
in CCCCO	-3.29
in CCCCOC	-3.78
in CCCCOCCCC	-3.21
in CCCOCCC	-3.51
in CCN1CCCC1=O	-4.29
in CCN(CC)C(C)=O	-4.28
in CCNC(C)=O	-3.72
in CCNC=O	-3.7
in CCO	-3.36
in CCOC(=O)c1ccccc1C(=O)OCC	-3.51
in CCOC(C)=O	-4.04
in CCOCC	-3.87
in CN1CCCC1=O	-4.23
in CN1CCCCC1=O	-4.45
in CNC(C)=O	-3.74
in CO	-3.49
in COC(C)=O	-4.03
in CS(C)=O	-4.13
in Cc1ccc(C)cc1	-3.55
in Cc1cccc(C)c1	-3.58
in Cc1ccccc1C	-3.58
in ClC(Cl)(Cl)Cl	-3.36
in ClC(Cl)Cl	-3.62
in ClCCCl	-3.72
in Clc1ccccc1	-3.53
in N#Cc1ccccc1	-3.78
in NC=O	-2.66
in O	-1.32
in O=C1CCCCC1	-4.13
in [2H]O[2H]	-1.5

CN1CCNCC1
Conditions	solvation free energy, 298 K [kcal/mol]
in O	-7.77

CCCCCCCCCCCCCCCCCCCCC
Conditions	solvation free energy, 298 K [kcal/mol]
in CC(=O)N(C)C	-14.3
in CC(C)(C)O	-12.9
in CN(C)C=O	-14.4
in O	4.71

O=Cc1cccnc1
Conditions	solvation free energy, 298 K [kcal/mol]
in O	-7.1

CCC(C)(C)O
Conditions	solvation free energy, 298 K [kcal/mol]
in CC(=O)CC(C)=O	-5.07
in CCCCCCC	-3.85
in CCCCCCCC	-3.99
in CCCCCCCCCC	-3.99
in O	-4.43

Cc1cccc(C)c1O
Conditions	solvation free energy, 298 K [kcal/mol]
in CC(C)CC(C)(C)C	-6.55
in O	-5.26

C=CC(C)=CCC=C(C)CCC=C(C)C
Conditions	solvation free energy, 298 K [kcal/mol]
in O	-1.06

CCC(O)CC
Conditions	solvation free energy, 298 K [kcal/mol]
in O	-4.35

CC(C)CO
Conditions	solvation free energy, 298 K [kcal/mol]
in Brc1ccccc1	-4.23
in C1CCCCC1	-3.98
in CC(=O)N(C)C	-6.04
in CC(C)(C)O	-5.95
in CC(C)CC(C)(C)C	-3.55
in CC(C)CCCC(C)CCCC(C)CCCCC(C)CCCC(C)CCCC(C)C	-3.1
in CCC(C)=O	-5.43
in CCC(C)O	-5.95
in CCCCCC	-3.58
in CCCCCCC	-3.51
in CCCCCCCC	-3.33
in CCCCCCCCCCCCCCCC	-3.25
in CCCCCCCCCCO	-5.43
in CCCCCCCCO	-5.36
in CCCCCO	-5.73
in CCCCCl	-4.41
in CCCCN(C=O)CCCC	-5.76
in CCCCO	-5.74
in CCCCOC(C)=O	-4.84
in CCCOCCC	-4.78
in CCOC(=O)c1ccccc1C(=O)OCC	-4.88
in CCOP(=O)(OCC)OCC	-5.79
in CN1CCCC1=O	-6.03
in CN1CCN(C)C1=O	-5.9
in CNC(C)=O	-5.91
in CO	-6.18
in Cc1ccc(C)cc1	-4.25
in Cc1cccc(C)c1	-4.1
in Clc1ccccc1	-4.26
in O	-4.52
in O=CN1CCOCC1	-5.3
in OCCOCCO	-5.51
in [2H]O[2H]	-4.59

CC(=O)Nc1ccc(O)cc1
Conditions	solvation free energy, 298 K [kcal/mol]
in C1CCOC1	-16.1
in C1COCCO1	-14.9
in CC(C)(C)O	-15.8
in CC(C)CO	-15.6
in CC(C)O	-16
in CC(C)OCCO	-16.1
in CC(O)COC(C)(C)C	-15.5
in CCC(C)O	-15.8
in CCCCCCCO	-15.3
in CCCCCCO	-15.5
in CCCCCO	-15.6
in CCCCO	-15.8
in CCCCOC(C)=O	-14.2
in CCCCOCCCC	-12
in CCCCOCCO	-15.8
in CCCO	-16.1
in CCCOCCO	-16.1
in CCOCCO	-16.4
in CN(C)C=O	-17.3
in CO	-16.6
in COC(C)(C)C	-13.4
in COC(C)=O	-14.8
in COC(C)CCO	-16
in ClCCl	-12.8
in Fc1ccccc1	-12.1
in O	-14.9

C=CC(C)(C)O
Conditions	solvation free energy, 298 K [kcal/mol]
in O	-4.19

Cc1cccc(C(C)C)c1
Conditions	solvation free energy, 298 K [kcal/mol]
in O	-0.72

ClCCBr
Conditions	solvation free energy, 298 K [kcal/mol]
in O	-1.95

COc1cc(NS(=O)(=O)c2ccc(N)cc2)nc(OC)n1
Conditions	solvation free energy, 298 K [kcal/mol]
in O	-18.9
